{"source": "patent US7144867B2", "about": "“Anticancer glycoside compounds” (priority 2004, dated 2006)", "key": {"[1]": {"system": "HUVEC (human umbilical vein endothelial cells)", "assay": "Angiogenesis, tube formation on Matrigel", "format": "cell-based", "description": "(§1) Test Substance and Concentration.\nCell Line and Culture Media.\nEvaluation of anti-proliferation for test substances. Matrigel matrix was thawed, kept on ice at 4° C. and 50 μL transferred to each well of a 96-microwell tissue culture plate. The plate was incubated at 37° C. for at least one hour to allow the matrix solution to solidify before treatment.\n(§2) Aliquots of 200 μl of (HUVEC) suspension (about 1.5×10^4 cells/well) were placed in 96-well microtiter plate. Two microliters of compound test solution or vehicle (40% DMSO) was then added per well in duplicate and incubated at 5% CO2 at 37° C. for 18 hours. The final concentration of DMSO was 0.4%. […] Failure to form continuous networks between cell bodies in the presence of test substance was photographed and scored as to the extent of tube disruption at a magnification of 40×. […] The minimum inhibitory concentration (MIC) was calculated to assess the effect of the test substance on angiogenesis."}, "[2]": {"system": "HUVEC (human umbilical vein endothelial cells)", "assay": "Angiogenesis, tube formation on Matrigel, Frondoside B (Example 5)", "format": "cell-based", "details": "concentrations in the range of 1 μM and greater; contemplated", "description": "as §1\nCell Line and Culture Media. […] The culture medium used is Endothelial Cell Growth Medium with 10% fetal bovine serum, which is supplemented with 1% Antibiotic-Antimycotic.\nEvaluation of anti-proliferation for test substances. Matrigel matrix is thawed, kept on ice at 4° C. and 50 μL transferred to each well of a 96-microwell tissue culture plate. The plate is incubated at 37° C. for at least one hour to allow the matrix solution to solidify before treatment.\nas §2, with “are” for “were”, “is” for “was”"}, "cancer cells": {"system": "cancer cells", "assay": "Anti-cancer / apoptotic promoting activity, method not described"}, "[3]": {"system": "angiogenesis in the animal", "assay": "Treatment of animals, anti-angiogenic evaluation (Example 6)", "format": "in vivo", "details": "contemplated; range of appropriate doses", "description": "Frondoside A or B is evaluated for anti-angiogenic (e.g., for research, drug screening or therapeutic purposes) in live animals. Animals (e.g., having or modeling a disease characterized by unwanted angiogenesis) are treated with a range of appropriate doses of Frondoside A or B. Exemplary dosages and dosage schedules include, but are not limited to, those described herein."}, "[4]": {"system": "DLD-1 (human colon adenocarcinoma)", "assay": "cells", "details": "for Percent Growth (Mean ± SEM, n = 2): 72-hour", "description": "Test Substance and Concentration. Frondoside A (CBR-24) was dissolved in 100% DMSO and then diluted with sterile distilled water to obtain initial working solutions of 10000, 1000, 100, 10, and 1 μM in 40% DMSO. A 100-fold dilution was further made in culture media to generate final assay concentration of 100, 10, 1, 0.1 and 0.01 μM in 0.4% of DMSO.\nCell Line and Culture Media. The tumor cell line DLD-1 (human colon adenocarcinoma), obtained from American Type Culture Collection (ATCC CCL-221), was incubated in 95% air-5% CO2 gas mixture at 37° C. The culture medium used was RPMI 1640 with 10% fetal bovine serum, which was supplemented with 1% Antibiotic-Antimycotic.\n(§3) Evaluation of anti-proliferation for test substances. Aliquots of 100 μl of cell suspension (about 2.5×10^3 cells/well) were placed in 96-well microtiter plates in an atmosphere of 5% CO2 at 37° C. […] Thus, the final concentration of DMSO was 0.4%. The Frondoside A was evaluated for possible inhibitory effects on cell proliferation at concentrations of 100, 10, 1, 0.1 and 0.01 μM. At the end of incubation, 20 μl of 90% alamarBlue reagent was added to each well for another 6 hour incubation before detection of cell viability by fluorescent intensity. Fluorescent intensity was measured using a Spectrafluor Plus plate reader with excitation at 530 nm and emission at 590 nm.\n(§4) Determination of IC50, TGI and LC50. The measured results were calculated by the following formula: PG(%)=100%×(Mean Ftest−Mean Ftime0)/(Mean Fctrl−Mean Ftime0) If (Mean Ftest−Mean Ftime0)<0, then PG (%)=100%×(Mean Ftest−Mean Ftime0)/(Mean Ftime0−Mean Fblank) Where: • PG: percent growth • Mean Ftime0=The average of 2 measured fluorescent intensities of reduced alamarBlue at the time just before exposure of cells to the test substance. • Mean Ftest=The average of 2 measured fluorescent intensities of alamarBlue after 72-hour exposure of cells to the test substance. • Mean Fctrl=The average of 2 measured fluorescent intensities of alamarBlue after 72-hour incubation without the test substance. • Mean Fblank=The average of 2 measured fluorescent intensities of alamarBlue in medium without cells after 72-hour incubation."}, "[5]": {"system": "PC-3 (human prostate adenocarcinoma)", "assay": "cells", "details": "for Percent Growth (Mean ± SEM, n = 2): 72-hour", "description": "Test Substance and Concentration. Frondoside A (FAS) was dissolved in 100% DMSO and then diluted with sterile distilled water to obtain initial working solutions of 1000, 300, 100, 30, and 10 μM in 40% DMSO. […]\nCell Line and Culture Media. The tumor cell line PC-3 (human prostate adenocarcinoma), obtained from American Type Culture Collection (ATCC CRL-1435), was incubated in air atmosphere of 5% CO2 at 37° C. The culture medium used was F-12K Nutrient Mixture (Kaighn's Modification) with 3% fetal bovine serum, which was supplemented with 1% Antibiotic-Antimycotic.\nas §3, with “of” for “of 100,”, “10, 3,” for “10,”, “1, 0.3 and” for “1,”, “0.1” for “0.1 and 0.01”, “6-hour” for “6 hour”\nas §4, with “was” for “were”"}}}
{"molecule": "Cc1ccc(C(=O)Nc2ccc(S(=O)(=O)O)c3cc(S(=O)(=O)O)cc(S(=O)(=O)O)c23)cc1NC(=O)c1cccc(NC(=O)Nc2cccc(C(=O)Nc3cc(C(=O)Nc4ccc(S(=O)(=O)O)c5cc(S(=O)(=O)O)cc(S(=O)(=O)O)c45)ccc3C)c2)c1", "note": "[Suramin, reference compound]", "values": [{"measurement": "inhibition of tube formation, standard reference agent", "setting": "[1]; 10 μM", "value": "significant inhibition"}, {"measurement": "inhibition at 0.3 µM", "setting": "[1]; Homo sapiens, HUVEC, 0.3 μM, 18 hours, read-out: %, Inhibition of the total tube length (Mean ± SEM, n = 2)", "value": "-1 ± 8", "unit": "%"}, {"measurement": "inhibition at 1 µM", "setting": "[1]; Homo sapiens, HUVEC, 1 μM, 18 hours, read-out: %, Inhibition of the total tube length (Mean ± SEM, n = 2)", "value": "-1 ± 7", "unit": "%"}, {"measurement": "inhibition at 3 µM", "setting": "[1]; Homo sapiens, HUVEC, 3 μM, 18 hours, read-out: %, Inhibition of the total tube length (Mean ± SEM, n = 2)", "value": "20 ± 8", "unit": "%"}, {"measurement": "inhibition at 10 µM", "setting": "[1]; Homo sapiens, HUVEC, 10 μM, 18 hours, read-out: %, Inhibition of the total tube length (Mean ± SEM, n = 2)", "value": 74, "unit": "%"}, {"measurement": "inhibition at 30 µM", "setting": "[1]; Homo sapiens, HUVEC, 30 μM, 18 hours, read-out: %, Inhibition of the total tube length (Mean ± SEM, n = 2)", "value": 100, "unit": "%"}, {"measurement": "MIC (Minimum Inhibitory Concentration)", "setting": "[1]; tube formation, significant inhibition ≧30%", "value": 10, "unit": "µM"}]}
{"molecule": "3 beta-O-{3-O-methyl-beta-D-glucopyranosyl-(1→3)-O-beta-D-6-sulfonatoglucopyranosyl-(1→4)-O-[beta-D-xylopyranosyl-(1→2)]-O-beta-D-quinovopyranosyl-(1→2)-O-beta-D-4-sulfonatoxylopyranosyl}-holost-7-ene sodium (or potassium) salt [Frondoside B]", "values": [{"measurement": "inhibition of tube formation relative to the vehicle-treated controls", "setting": "[2]", "value": "significant inhibition of tube formation"}, {"measurement": "anti-cancer activity", "setting": "cancer cells; no test described", "value": "showed anti-cancer activity"}, {"measurement": "apoptotic promoting activity in cancer cells", "setting": "cancer cells; no test described for Frondoside B", "value": "apoptotic promoting activity"}, {"measurement": "angiogenesis in the animal", "setting": "[3]", "value": "inhibits angiogenesis"}]}
{"molecule": "CO[C@@]12[C@H](COC(N)=O)C3=C(C(=O)C(C)=C(N)C3=O)N1C[C@@H]1N[C@@H]12", "note": "[Mitomycin, reference compound]", "values": [{"measurement": "Percent Growth (Mean ± SEM, n = 2)", "setting": "[4]; DLD-1, 0.001 μM", "value": "96 ± 5", "unit": "%"}, {"measurement": "Percent Growth (Mean ± SEM, n = 2)", "setting": "[4]; DLD-1, 0.01 μM", "value": "83 ± 8", "unit": "%"}, {"measurement": "Percent Growth (Mean ± SEM, n = 2)", "setting": "[4]; DLD-1, 0.1 μM", "value": "66 ± 5", "unit": "%"}, {"measurement": "Percent Growth (Mean ± SEM, n = 2)", "setting": "[4]; DLD-1, 1 μM", "value": "31 ± 4", "unit": "%"}, {"measurement": "Percent Growth (Mean ± SEM, n = 2)", "setting": "[4]; DLD-1, 10 μM", "value": "−11 ± 7", "unit": "%"}, {"measurement": "TGI (Total Growth Inhibition)", "setting": "[4]; DLD-1, semi-quantitative, nonlinear regression", "value": 5.5, "unit": "µM"}, {"measurement": "IC50", "setting": "[4]; Homo sapiens, DLD-1, read-out: IC50 (50% Inhibition Concentration)", "value": 0.33, "unit": "µM"}, {"measurement": "activity of positive control on DLD-1 growth", "setting": "[4]; at <10 μM", "value": "Significant activity"}, {"measurement": "IC50", "setting": "[5]; Homo sapiens, read-out: IC50 (50% Inhibition Concentration)", "value": 0.13, "unit": "µM"}, {"measurement": "Percent Growth (Mean ± SEM, n = 2)", "setting": "[5]; PC-3, 0.001 μM", "value": "103 ± 1", "unit": "%"}, {"measurement": "Percent Growth (Mean ± SEM, n = 2)", "setting": "[5]; PC-3, 0.01 μM", "value": "107 ± 1", "unit": "%"}, {"measurement": "Percent Growth (Mean ± SEM, n = 2)", "setting": "[5]; PC-3, 0.1 μM", "value": "35 ± 0", "unit": "%"}, {"measurement": "Percent Growth (Mean ± SEM, n = 2)", "setting": "[5]; PC-3, 1 μM", "value": "6 ± 1", "unit": "%"}, {"measurement": "Percent Growth (Mean ± SEM, n = 2)", "setting": "[5]; PC-3, 10 μM", "value": "−77 ± 2", "unit": "%"}, {"measurement": "TGI (Total Growth Inhibition)", "setting": "[5]; PC-3, semi-quantitative, nonlinear regression", "value": 0.75, "unit": "µM"}, {"measurement": "activity of standard reference agent on PC-3 growth", "setting": "[5]; at <10 mM", "value": "Significant activity"}]}
